Structures can show the parent of a compound that is named as a salt.
Legend:
[1] = biological target: T1, thromboxane synthetase enzyme (Rattus norvegicus, UniProt P49430); experiment: Thromboxane synthetase enzyme inhibition (TXB2 formation in washed platelets, RIA); format: cell-based, spontaneously hypertensive rat; details: 1×10^-4 Molar, SHR platelets, 10 min at 37° C.; for inhibition at 100 µM: read-out: % Inhibition (Thromboxane Synthetase Enzyme Inhibition)
T1 construct: endogenous in cells; host or cells: washed platelets from arterial blood of male Okamoto-Aoki spontaneously hypertensive rats (animals from Taconic Farms, Germantown, N.Y.)
T1 sequence (P49430 1-533): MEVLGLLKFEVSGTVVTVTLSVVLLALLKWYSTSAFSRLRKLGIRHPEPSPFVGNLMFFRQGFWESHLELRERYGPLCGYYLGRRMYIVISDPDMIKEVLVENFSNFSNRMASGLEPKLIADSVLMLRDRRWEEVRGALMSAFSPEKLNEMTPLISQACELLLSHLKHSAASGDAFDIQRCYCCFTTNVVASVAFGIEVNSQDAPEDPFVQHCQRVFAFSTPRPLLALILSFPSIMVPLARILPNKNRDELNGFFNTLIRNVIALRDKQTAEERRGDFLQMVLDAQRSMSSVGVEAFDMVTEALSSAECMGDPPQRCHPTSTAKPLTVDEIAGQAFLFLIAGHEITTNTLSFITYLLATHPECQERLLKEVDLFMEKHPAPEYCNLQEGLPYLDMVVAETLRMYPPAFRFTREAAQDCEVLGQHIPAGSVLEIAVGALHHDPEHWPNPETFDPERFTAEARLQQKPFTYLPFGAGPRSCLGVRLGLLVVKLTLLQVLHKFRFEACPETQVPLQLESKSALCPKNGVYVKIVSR
Protocol: The blood was diluted with 3 ml cold saline and centrifuged at room temperature for 15 min at 468×g. The platelet rich plasma (PRP) was separated. The platelets were isolated by certrifuging the PRP for 10 minutes at 1060×g and washed in 4 ml cold oxygenated Krebs phosphate buffer, pH 7.4. The chilled platelets recovered from centrifuging at 800×g for 10 minutes were resuspended in oxygenated Krebs phosphate buffer and diluted to contain 4.0-6.0×10^4 platelets/micro-liters. The inhibition of TX formation was studied by determining the concentration of thromboxane B2 (TXB2), the stable hydrolysis product of TXA2. Assay samples prepared on ice, contained 200 micro-liters platelet suspension, 50 micro-liters saline, and 50 micro-liters […] (saline) or drug under study. The test drug (0.003 mole) was dissolved in 5 ml of saline. […] The assay samples were incubated for 10 minutes at 37° C. in a metabolic shaker at about 60 rpm. The reaction was terminated by immersing the tubes in an ice bath and adding 50 micro-liters of 0.5M citric acid. The samples were centrifuged for 10 minutes at 2000 rpm at 4° C., and the supernatants were decanted.

[2] = tested on: thevetin-induced arrhythmia in guinea pigs; experiment: Thevetin (cardiac glycoside)-induced arrhythmia in guinea pigs; format: in vivo, guinea pig; details: for Time (Minutes) Before Induced Arrhythmia: saline 22.91±0.5 minutes
Protocol: Male guinea pigs, weighing 300-500 g each, from Summit View Farms, Belvidere, N.J., were anesthetized by intraperitoneal adminstration of urethan at 1500 mg/kg. The animals were then restrained in a supine position. Electrocardiogram leads were attached to the four limbs and Lead II of the electrocardiogram was monitored.
The neck region was exposed and the jugular vein was cannulated. The test compounds were dissolved in saline and administered intravenously at the indicated doses, via a cannula which was then flushed with saline. Five minutes after the test compound was administered, thevetin dissolved in saline was administered by infusion through a cannula at a dose of 0.1 mg/kg/minute in a volume of 0.1 ml. The time until the P wave of the electrocardiogram disappeared was determined.

[3] = tested on: spontaneously hypertensive rats; experiment: Hypotensive activity in spontaneously hypertensive rats (MABP); format: in vivo, rat (Okamoto strain); details: SHR, gavage, two doses of 10 mg/kg or less 24 h apart, MABP at 28 h; average baseline 160±1.5 mm Hg
Protocol: The novel compounds of the present invention are active hypotensive agents and were tested for hypotensive activity by the method of P. S. Chan and D. Poorvin, Clinical and Experimental Hypertension, 1 (6), 817-830 (1979). Male, 16 week old, spontaneously hypertensive rats of the Okamoto strain, from Taconic Farms, Germantown, N.Y., having an average mean arterial blood pressure of 160±1.5 mm of mercury, were used in the test. One to 4 rats were used per test compound. A rat was dosed by gavage with a test compound, suspended in 2% pre-boiled starch at a concentration of 50 mg/ml, at a doses of 10 mg/kg of body weight or less, with 0.9% sodium chloride loading at a dose of 25 ml/kg of body weight. A second identical dose of the test compound, without sodium chloride loading was given 24 hours later. At 28 hours after initial dose the mean arterial blood pressure (MABP) was measured. The procedure was repeated in a second and third rat when necessary.

[4] = intravenous doses as high as 20 mg/kg

With `CN(C)S(=O)(=O)c1ccc2c3c(cccc13)C(NCCCn1ccnc1)=N2` [N,N-Dimethyl-2-((3-(1H-imidazol-1-yl)propyl)amino)benz(cd)indol-6-sulfonamide] the inhibition at 100 µM [1] was 100% and the “Time (Minutes) Before Induced Arrhythmia” value ([2]; IV dose 20 mg/kg) was 33.4 min.

In the case of `CC(C)NC[C@H](O)COc1cccc2ccccc12` (racemic) [Propanolol, reference compound], the “activity in thevetin-induced arrhythmia test” value (“activity” for short) ([2]; intravenous dose of 2 mg/kg) is reported as “active” and the “time protected before arrhythmia occurred” value ([2]; intravenous dose of 2 mg/kg) is reported as 47.0 ± 4.1 min.

For `Clc1cc(Cl)c2cccc3c2c1N=C3NCCCCCn1ccnc1` [6,8-Dichloro-N-(5-(1H-imidazol-1-yl)pentyl)benz(cd)indol-2-amine], the “Time (Minutes) Before Induced Arrhythmia” value ([2]; IV dose 20 mg/kg) was 33.4 min and the “Avg. MABP in mm Hg (No. of Rats)” value [3] was 119 mm Hg.

With `Brc1ccc2c3c(cccc13)C(NCCCCCn1ccnc1)=N2` [6-Bromo-N-(5-(1H-imidazol-1-yl)pentyl)benz(cd)indol-2-amine] the inhibition at 100 µM [1] was 97%, the “Time (Minutes) Before Induced Arrhythmia” value ([2]; IV dose 20 mg/kg) was 37 min and the “Avg. MABP in mm Hg (No. of Rats)” value [3] was 118 mm Hg.

With `O=C(O)/C=C/C(=O)O.c1cc2c3c(cccc3c1)C(NCCCCCCCCCCn1ccnc1)=N2` [N-(10-(1H-imidazol-1-yl)decyl)benz(cd)indol-2-amine, fumarate] the inhibition at 100 µM [1] was 65%, the “Time (Minutes) Before Induced Arrhythmia” value ([2]; IV dose 10 mg/kg) was 34.2 min and the “Avg. MABP in mm Hg (No. of Rats)” value [3] was 124 mm Hg.

With `CC(CCNC1=Nc2ccc(Br)c3cccc1c23)n1ccnc1` (centres unmarked) [6-Bromo-N-(3-(1H-imidazol-1-yl)butyl)benz(cd)indol-2-amine] the inhibition at 100 µM [1] was 100%, the “Time (Minutes) Before Induced Arrhythmia” value ([2]; IV dose 30 mg/kg) was 34.7 min and the “Avg. MABP in mm Hg (No. of Rats)” value [3] was 120 mm Hg.

`O=C(O)/C=C/C(=O)O.c1ccc(C(CCn2ccnc2)NC2=Nc3cccc4cccc2c34)cc1` (centres unmarked) [N-(3-(1H-imidazol-1-yl)-1-phenylpropyl)benz(cd)indol-2-amine, fumarate] was tested, and the inhibition at 100 µM [1] was 100% and the “Time (Minutes) Before Induced Arrhythmia” value ([2]; IV dose 30 mg/kg) was 34 min.

`O=C(O)/C=C/C(=O)O.c1cc2c3c(cccc3c1)C(NCCCCn1ccnc1)=N2` [N-(4-(1H-imidazol-1-yl)butyl)benz(cd)indol-2-amine, fumarate] was tested, and the “% Inhibition (Thromboxane Synthetase Enzyme Inhibition)” value (“% Inhibition” for short) [1] was 100%, the “Time (Minutes) Before Induced Arrhythmia” value ([2]; IV dose 10 mg/kg) was 31 min and the “Avg. MABP in mm Hg (No. of Rats)” value [3] was 106 mm Hg.

`CC(CCNC1=Nc2ccc(S(=O)(=O)N(C)C)c3cccc1c23)n1ccnc1` (centres unmarked) [N,N-Dimethyl-2-((3-(1H-imidazol-1-yl)butyl)amino)benz(cd)indol-6-sulfonamide] was tested, and the inhibition at 100 µM [1] was 99% and the “Time (Minutes) Before Induced Arrhythmia” value ([2]; IV dose 10 mg/kg) was 33.6 min.

With `O=C(O)c1ccc(OCCn2ccnc2)cc1` [Dazoxiben hydrochloride, 4-(2-(1H-imidazol-l-yl)ethoxy)benzoic acid, monohydrochloride, reference compound] the “activity” value [2, 4] was “inactive” and the “time before arrhythmia occurred” value [2, 4] was 22.2 ± 1.9 min.

In the case of `c1ccc(C(CNC2=Nc3cccc4cccc2c34)(Cn2ccnc2)c2ccccc2)cc1` [N-(3-(1H-imidazol-1-yl)-2,2-diphenylpropyl)benz(cd)indol-2-amine], the inhibition at 100 µM [1] is reported as 75%, the “Time (Minutes) Before Induced Arrhythmia” value ([2]; IV dose 10 mg/kg) is reported as 41 min and the “Avg. MABP in mm Hg (No. of Rats)” value [3] is reported as 127 mm Hg.

With `c1cncc(CCNC2=Nc3cccc4cccc2c34)c1` [N-(2-(3-Pyridinyl)ethyl)benz(cd)indol-2-amine sesqui-fumarate] the inhibition at 100 µM [1] was 99%, the “Time (Minutes) Before Induced Arrhythmia” value ([2]; IV dose 20 mg/kg) was 37 min and the “Avg. MABP in mm Hg (No. of Rats)” value [3] was 126 mm Hg.

With `Clc1ccc2c3c(cccc13)C(NCCCCn1ccnc1)=N2.O=C(O)/C=C/C(=O)O` [6-Chloro-N-(4-(1H-imidazol-1-yl)butyl)benz(cd)indol-2-amine, fumarate] the inhibition at 100 µM [1] was 100%, the “Time (Minutes) Before Induced Arrhythmia” value ([2]; IV dose 10 mg/kg) was 31.5 min and the “Avg. MABP in mm Hg (No. of Rats)” value [3] was 115 mm Hg.

In the case of `CC(CCNC1=Nc2c(Cl)cc(Cl)c3cccc1c23)n1ccnc1` (centres unmarked) [6,8-Dichloro-N-(3-(1H-imidazol-1-yl)butyl)benz(cd)indol-2-amine], the “Time (Minutes) Before Induced Arrhythmia” value ([2]; IV dose 20 mg/kg) is reported as 32 min and the “Avg. MABP in mm Hg (No. of Rats)” value [3] is reported as 102 mm Hg.

In the case of `CC(CNC1=Nc2cccc3cccc1c23)Cn1ccnc1.O=C(O)/C=C/C(=O)O` (centres unmarked) [N-(3-(1H-imidazol-1-yl)-2-methylpropyl)benz(cd)indol-2-amine, fumarate], the “% Inhibition” value [1] is reported as 100% and the “Time (Minutes) Before Induced Arrhythmia” value ([2]; IV dose 20 mg/kg) is reported as 34.5 min.

In the case of `C(=C\Cn1ccnc1)/CNC1=Nc2cccc3cccc1c23` [(E)-N-(4-(1H-imidazol-1-yl)-2-butenyl)benz(cd)indol-2-amine, hydriodide], the inhibition at 100 µM [1] is reported as 100% and the “Time (Minutes) Before Induced Arrhythmia” value ([2]; IV dose 10 mg/kg) is reported as 34.3 min.

With `Clc1cc(Cl)c2cccc3c2c1N=C3NCCCCc1cccnc1` [6,8-Dichloro-N-(4-(3-pyridinyl)butyl)benz(cd)indol-2-amine] the inhibition at 100 µM [1] was 93% and the “Avg. MABP in mm Hg (No. of Rats)” value [3] was 102 mm Hg.

For `c1cc2c3c(cccc3c1)C(NCCCCCCCCCCCCn1ccnc1)=N2` [N-(12-(1H-imidazol-1-yl)dodecyl)benz(cd)indol-2-amine], the inhibition at 100 µM [1] was 97% and the “Avg. MABP in mm Hg (No. of Rats)” value [3] was 133 mm Hg.

In the case of `CC(=O)N(CCCCn1ccnc1)C1=Nc2cccc3cccc1c23` [N-Benz(cd)indol-2-yl-N-(4-(1H-imidazol-1-yl)butyl)acetamide], the inhibition at 100 µM [1] is reported as 98.5% and the “Avg. MABP in mm Hg (No. of Rats)” value [3] is reported as 81 mm Hg.

For `Brc1ccc2c3c(cccc13)C(NCCCCc1cccnc1)=N2.Cl.Cl` [6-Bromo-N-(4-(3-pyridinyl)butyl)benz(cd)indol-2-amine, dihydrochloride], the “% Inhibition” value [1] was 89% and the “Avg. MABP in mm Hg (No. of Rats)” value [3] was 99 mm Hg.

With `CC(=Cc1ccc(Cc2cccnc2)cc1)C(=O)O` [OKY-1581, 2-methyl-3-(4-(3-pyridinylmethyl)phenyl-2-propenoic acid, sodium salt, reference compound] the “activity” value [2, 4] was “inactive” and the “time before arrhythmia occurred” value [2, 4] was 24.3 ± 2.2 min.

With `Brc1ccc2c3c(cccc13)C(NCCCCCCCCCCCCn1ccnc1)=N2` [6-Bromo-N-(12-(1H-imidazol-1-yl)dodecyl)benz(cd)indol-2-amine] the inhibition at 100 µM [1] was 90% and the “Avg. MABP in mm Hg (No. of Rats)” value [3] was 128 mm Hg.

In the case of `O=C(CNC1=Nc2cccc3cccc1c23)NCCCn1ccnc1` [2-(Benz(cd)indol-2-ylamino)-N-(3-(1H-imidazol-1-yl)propyl)acetamide], the inhibition at 100 µM [1] is reported as 100% and the “Time (Minutes) Before Induced Arrhythmia” value ([2]; IV dose 25 mg/kg) is reported as 33 min.

With `O=S(=O)(c1ccccc1)N(CCCn1ccnc1)C1=Nc2cccc3cccc1c23` [N-Benz(cd)indol-2-yl-N-(3-(1H-imidazol-1-yl)propyl)benzenesulfonamide] the inhibition at 100 µM [1] was 93% and the “Avg. MABP in mm Hg (No. of Rats)” value [3] was 135 mm Hg.

In the case of `CC(CCNC1=Nc2cccc3cccc1c23)c1cccnc1` (centres unmarked) [N-(3-(3-Pyridinyl)butyl)benz(cd)indol-2-amine], the inhibition at 100 µM [1] is reported as 96% and the “Avg. MABP in mm Hg (No. of Rats)” value [3] is reported as 110 mm Hg.

In the case of `CC(CCNC1=Nc2cccc3cccc1c23)CCn1ccnc1` (centres unmarked) [N-(5-(1H-imidazol-1-yl)-3-methylpentyl)benz(cd)indol-2-amine,dihydrochloride], the inhibition at 100 µM [1] is reported as 100% and the “Avg. MABP in mm Hg (No. of Rats)” value [3] is reported as 92 mm Hg.

Source: US5081131A, “Omega-((hetero)alkyl)benz(cd)-indol-2-amines” (American Cyanamid Company, priority 1988, dated 1992)
